This is an account of results in patent US9617239B2, “Phenoxy thiophene sulfonamides and their use as inhibitors of glucuronidase” (North Carolina Central University, priority 2010, dated 2017).

One experiment deals with E. coli β-glucuronidase (Escherichia coli (strain K12), UniProt P05804). Kind of experiment: β-Glucuronidase assay (4MUG hydrolysis, fluorescence). As to conditions: Table 1; compounds from 35,000 compound diversity set library; 50 pM enzyme, 125 uM 4MUG; read-out: IC50, β-Glucuronidase Inhibitory activity of phenoxythiophene sulfonamides. In kind it is biochemical.
Broadly, the IC50 is the concentration that gives 50% inhibition. As to `O=[S+]([O-])(NCc1cccc2ccccc12)c1cc(Cl)c(Oc2ccc3c(c2)CCCC3)s1` [BRITE-355244], the IC50 was found to be 123 µM.

`O=[S+]([O-])(NCc1cccc2ccccc12)c1cc(Cl)c(Oc2ccc3c(c2)OCO3)s1` [BRITE-355233]: the IC50 came out at 376 µM.

Turning to `Cc1cc(Oc2sc([S+](=O)([O-])NCc3cccc4ccccc34)cc2Cl)cc(C(C)C)c1` [BRITE-355214], the IC50 was 135 µM. On to `O=[S+]([O-])(NCc1cccc2ccccc12)c1ccc(Oc2ccc(OCc3ccccc3)cc2)s1` [BRITE-355169], for which the IC50 is 153 µM. `O=[S+]([O-])(NCc1cccc2ccccc12)c1cc(Cl)c(Oc2cccc(-c3ccccc3)c2)s1` [BRITE-355180]: the IC50 is 102 µM. On the same count and under the same terms, for `CCCOc1ccc(Oc2sc([S+](=O)([O-])NCc3cccc4ccccc34)cc2Cl)cc1` [BRITE-355221] the value was 402 µM; for `COc1cccc(OC)c1Oc1sc([S+](=O)([O-])NCc2cccc3ccccc23)cc1Cl` [BRITE-355201], 202 µM. With `Cc1cc(C)cc(Oc2sc([S+](=O)([O-])NCc3cccc4ccccc34)cc2Cl)c1` [BRITE-355234], the IC50 was 152 µM. On to `O=[S+]([O-])(NCc1cccc2ccccc12)c1ccc(Oc2ccc3c(c2)CCCC3)s1` [BRITE-355030], for which the half-inhibitory concentration (IC50) amounted to 149 µM. As to `O=[S+]([O-])(NCc1cccc2ccccc12)c1cc(Cl)c(Oc2ccccc2)s1` [BRITE-355253], the IC50 stood at 444 µM. Still for that read-out and setting: for `O=[S+]([O-])(NCc1cccc2ccccc12)c1cc(Cl)c(Oc2cccnc2)s1` [BRITE-355211] the value was 192 µM; for `COc1ccc2ccc(Oc3ccc([S+](=O)([O-])NCc4cccc5ccccc45)s3)cc2c1` [BRITE-354458], 175 µM.

The next experiment concerns rats.
Test: not given
Particulars: background, reference 14; cited from earlier work.
Take `O=C1OC(C(O)C(=O)O)C(O)C1O` (stereo not shown) [saccharic acid 1,4-lactone]: the “reversal of SN-38-related epithelial cell death and severe diarrhea from CPT-11” value is “partially reversed”.
